Laboratory results taken from the supplement of paper PMC4862054.

Assays:
Experiment in all cases: normalised viability (% of control), CellTiter-Blue; higher = more viable cells (about 100 = DMSO control)
Conditions in all cases: incubation time: 72 h
[1] = tested on: MFM-223
Experimental: (§1)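 DSRT, CellTiter-Blue viability, 72 h incubation. Signal is normalised to DMSO and benzethonium chloride controls. Value is the normalised response at dose 3.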

[2] = tested on: SK-BR-3
Experimental: as §1

[3] = tested on: MDA-MB-231
Experimental: as §1

[4] = tested on: MDA-MB-436
Experimental: as §1

[5] = tested on: HDQ-P1
Experimental: as §1

[6] = tested on: Hs578T
Experimental: as §1

[7] = tested on: MDA-MB-453
Experimental: as §1

[8] = tested on: MDA-MB-468
Experimental: as §1

[9] = tested on: BT-474
Experimental: as §1

[10] = tested on: CAL-85-1
Summary of the method: (§2)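 Each entry is normalised viability at a single listed concentration within a series. It comes from breast cancer cell lines incubated 72 h with compound in 384-well plates, then measured with CellTiter-Blue fluorescence at 560/590 nm. Every plate was normalised between vehicle (100) and a positive kill control (0).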

[11] = tested on: MFM-223; remark: listed apart in the source
Summary of the method: as §2

[12] = tested on: SK-BR-3; remark: listed apart in the source
Summary of the method: as §2

[13] = tested on: MDA-MB-231; remark: listed apart in the source
Summary of the method: as §2

[14] = tested on: HCC1937
Summary of the method: as §2

[15] = tested on: MDA-MB-436; remark: listed apart in the source
Summary of the method: as §2

[16] = tested on: CAL-51
Summary of the method: as §2

[17] = tested on: BT-549
Summary of the method: as §2

[18] = tested on: HDQ-P1; remark: listed apart in the source
Summary of the method: as §2

[19] = tested on: Hs578T; remark: listed apart in the source
Summary of the method: as §2

[20] = tested on: HCC1143
Summary of the method: as §2

[21] = tested on: CAL-120
Summary of the method: as §2

[22] = tested on: MDA-MB-453; remark: listed apart in the source
Summary of the method: as §2

[23] = tested on: CAL-148
Summary of the method: as §2

[24] = tested on: HCC1599
Summary of the method: as §2

[25] = tested on: MDA-MB-468; remark: listed apart in the source
Summary of the method: as §2

[26] = tested on: DU-4475
Summary of the method: as §2

[27] = tested on: BT-474; remark: listed apart in the source
Summary of the method: as §2

Cn1c(=O)c(F)c(Nc2ccc(I)cc2F)c2c(=O)n(C[C@@H](O)CO)cnc21 [TAK-733]
Conditions | normalised viability [%]
[1], 10 nM | 80.3
[2], 10 nM | 99.4
[3], 10 nM | 54.9
[4], 10 nM | 100
[5], 1 nM | 118
[6], 10 nM | 86.8
[7], 1 nM | 123
[8], 10 nM | 91.5
[9], 10 nM | 123
[10], 0.3 nM | 93.5
[10], 3 nM | 97.8
[10], 10 nM | 96.1
[11], 1 nM | 90.4
[11], 100 nM | 79.8
[11], 1000 nM | 64.5
[12], 1 nM | 106
[12], 100 nM | 102
[12], 1000 nM | 112
[13], 1 nM | 89.2
[13], 100 nM | 36.1
[13], 1000 nM | 33.8
[14], 1 nM | 121
[14], 100 nM | 104
[14], 1000 nM | 74
[15], 1 nM | 112
[15], 100 nM | 84.1
[15], 1000 nM | 88.9
[16], 0.3 nM | 107
[16], 3 nM | 88.7
[16], 10 nM | 90.1
[17], 1 nM | 92
[17], 100 nM | 81.8
[17], 1000 nM | 103
[18], 0.3 nM | 113
[18], 3 nM | 118
[18], 10 nM | 91.6
[19], 1 nM | 108
[19], 100 nM | 88.3
[19], 1000 nM | 77.5
[20], 1 nM | 94.1
[20], 100 nM | 68.6
[20], 1000 nM | 56.4
[21], 1 nM | 92.4
[21], 100 nM | 74.7
[21], 1000 nM | 56.3
[22], 0.3 nM | 114
[22], 3 nM | 104
[22], 10 nM | 115
[23], 0.3 nM | 95
[23], 3 nM | 99.5
[23], 10 nM | 99.5
[24], 1 nM | 94.8
[24], 100 nM | 74.6
[24], 1000 nM | 70.5
[25], 1 nM | 99.4
[25], 100 nM | 84.6
[25], 1000 nM | 95
[26], 0.3 nM | 84.7
[26], 3 nM | 56.7
[26], 10 nM | 15.3
[27], 1 nM | 123
[27], 100 nM | 121
[27], 1000 nM | 131

O=c1[nH]c(=O)n([C@H]2C[C@H](O)[C@@H](CO)O2)cc1F [Floxuridine]
Conditions | normalised viability [%]
[1], 100 nM | 92.6
[2], 100 nM | 53
[3], 100 nM | 97.4
[4], 100 nM | 72.6
[5], 10 nM | 107
[6], 100 nM | 85.8
[7], 10 nM | 98.5
[8], 100 nM | 51.9
[9], 100 nM | 117
[10], 3 nM | 90.4
[10], 30 nM | 68.8
[10], 100 nM | 62.3
[11], 10 nM | 97.1
[11], 1000 nM | 93.4
[11], 10000 nM | 55.1
[12], 10 nM | 94.5
[12], 1000 nM | 44.9
[12], 10000 nM | 24
[13], 10 nM | 106
[13], 1000 nM | 58.1
[13], 10000 nM | 47.2
[14], 10 nM | 78.3
[14], 1000 nM | 76
[14], 10000 nM | 42.1
[15], 10 nM | 88.9
[15], 1000 nM | 62.5
[15], 10000 nM | 44.2
[16], 3 nM | 108
[16], 30 nM | 64.4
[16], 100 nM | 46.6
[17], 10 nM | 96.5
[17], 1000 nM | 67.1
[17], 10000 nM | 44.8
[18], 3 nM | 111
[18], 30 nM | 94.8
[18], 100 nM | 80.8
[19], 10 nM | 127
[19], 1000 nM | 58.9
[19], 10000 nM | 38.9
[20], 10 nM | 97.5
[20], 1000 nM | 91.1
[20], 10000 nM | 61.6
[21], 10 nM | 94.4
[21], 1000 nM | 16.8
[21], 10000 nM | 21.1
[22], 3 nM | 109
[22], 30 nM | 79
[22], 100 nM | 85.3
[23], 3 nM | 97.6
[23], 30 nM | 54.4
[23], 100 nM | 52.8
[24], 10 nM | 86.9
[24], 1000 nM | 91.8
[24], 10000 nM | 81.9
[25], 10 nM | 95.5
[25], 1000 nM | 43.7
[25], 10000 nM | 30.3
[26], 3 nM | 107
[26], 30 nM | 107
[26], 100 nM | 69.5
[27], 10 nM | 108
[27], 1000 nM | 103
[27], 10000 nM | 94.8

CC(C)(C)c1cc(NC(=O)Nc2ccc(-c3cn4c(n3)sc3cc(OCCN5CCOCC5)ccc34)cc2)no1 [Quizartinib]
Conditions | normalised viability [%]
[1], 10 nM | 86
[2], 10 nM | 91
[3], 10 nM | 91.3
[4], 10 nM | 110
[5], 1 nM | 91.8
[6], 10 nM | 69.5
[7], 1 nM | 99
[8], 10 nM | 104
[9], 10 nM | 94.6
[10], 0.3 nM | 96.9
[10], 3 nM | 97.8
[10], 10 nM | 105
[11], 1 nM | 86
[11], 100 nM | 86.4
[11], 1000 nM | 83.8
[12], 1 nM | 88.4
[12], 100 nM | 93.5
[12], 1000 nM | 96.5
[13], 1 nM | 104
[13], 100 nM | 118
[13], 1000 nM | 89.7
[14], 1 nM | 59.2
[14], 100 nM | 81.8
[14], 1000 nM | 99.8
[15], 1 nM | 104
[15], 100 nM | 45.7
[15], 1000 nM | 87.6
[16], 0.3 nM | 115
[16], 3 nM | 106
[16], 10 nM | 110
[17], 1 nM | 89.4
[17], 100 nM | 95.1
[17], 1000 nM | 44
[18], 0.3 nM | 94.2
[18], 3 nM | 103
[18], 10 nM | 98.8
[19], 1 nM | 67.6
[19], 100 nM | 119
[19], 1000 nM | 93.2
[20], 1 nM | 94.3
[20], 100 nM | 95.8
[20], 1000 nM | 94.9
[21], 1 nM | 93.8
[21], 100 nM | 96.6
[21], 1000 nM | 96.6
[22], 0.3 nM | 118
[22], 3 nM | 110
[22], 10 nM | 105
[23], 0.3 nM | 98.1
[23], 3 nM | 102
[23], 10 nM | 96.2
[24], 1 nM | 119
[24], 100 nM | 105
[24], 1000 nM | 63.6
[25], 1 nM | 108
[25], 100 nM | 108
[25], 1000 nM | 86.1
[26], 0.3 nM | 95.8
[26], 3 nM | 98.6
[26], 10 nM | 93.3
[27], 1 nM | 95.2
[27], 100 nM | 104
[27], 1000 nM | 96.6
